T1: HSP20, wild type, transfected into HEKB2 / HEK293 cells (human, UniProt O14558 1-160)
T1 construct: Expressed from pcDNA6.2-Hsp20 (Gateway cloning into pcDNA6.2/V5-DEST); Immunopurified from cell lysates; also called HSP20 wt
T1 sequence: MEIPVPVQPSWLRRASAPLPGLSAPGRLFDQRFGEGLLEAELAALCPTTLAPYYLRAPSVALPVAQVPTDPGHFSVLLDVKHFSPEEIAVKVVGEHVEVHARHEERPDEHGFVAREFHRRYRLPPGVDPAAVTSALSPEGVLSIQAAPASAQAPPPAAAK

B1: GST-PDE4D5 (enzyme)
chain: MAQQTSPDTLTVPEVDNPHCPNPWLNEDLVKSLRENLLQHEKSKTARKSVSPKLSPVISPRNSPRLLRRMLLSSNIPKQRRFTVAHTCFDVDNGTSAGRSPLDPMTSPGSGLILQANFVHSQRRESFLYRSDSDYDLSPKSMSRNSSIASDIHGDDLIVTPFAQVLASLRTVRNNFAALTNLQDRAPSKRSPMCNQPSINKATITEEAYQKLASETLEELDWCLDQLETLQTRHSVSEMASNKFKRMLNRELTHLSEMSRSGNQVSEFISNTFLDKQHEVEIPSPTQKEKEKKKRPMSQISGVKKLMHSSSLTNSSIPRFGVKTEQEDVLAKELEDVNKWGLHVFRIAELSGNRPLTVIMHTIFQERDLLKTFKIPVDTLITYLMTLEDHYHADVAYHNNIHAADVVQSTHVLLSTPALEAVFTDLEILAAIFASAIHDVDHPGVSNQFLINTNSELALMYNDSSVLENHHLAVGFKLLQEENCDIFQNLTKKQRQSLRKMVIDIVLATDMSKHMNLLADLKTMVETKKVTSSGVLLLDNYSDRIQVLQNMVHCADLSNPTKPLQLYRQWTDRIMEEFFRQGDRERERGMEISPMCDKHNASVEKSQVGFIDYIVHPLWETWADLVHPDAQDILDTLEDNREWYQSTIPQSPSPAPDDPEEGRQGQTEKFQFELTLEEDGESDTEKDSGSQVEEDTSCSDSKTLCTQDSESTEIPLDEQVEEEAVGEEEESQPEACVIDDRSPDT
notes: Expressed in E. coli and purified; Printed both GST-PDE4D5 and PDE4D5-GST; also called PDE4D5-GST; not shown: glutathione-S-transferase (GST) tag
B2: PDE4D5 (transfected into HEKB2 / HEK293 cells) (enzyme)
chain: B1 chain
B3: His-HSP20 (purified recombinant His-tagged HSP20) (other)
chain: T1 sequence
notes: Expressed in E. coli BL21 from pET28c and purified on nickel; also called HSP20-His; HSP20-6His; not shown: His tag from the pET28c vector

What was measured:
[1] = test system: neonatal cardiac myocytes; assay: Cardiac myocyte size by xCELLigence impedance (normalised cell index); type: cell-based, rat; details: 24 hour isoprenaline 10 μM, 30 min pre-treatment with 10 μM peptide
Protocol: (§1) FIG. 7. Peptide disruption of the PDE4D-HSP20 complex attenuates the hypertrophic response triggered by constant […]-agonist treatment. A, Upper panel. The area covered by isolated cardiac myocytes was used as a measure of cell size. Lower panel, Graphical depiction of the mean areas (N=100) of cells following 24 hours of indicated treatments. B, impedance measurements were used to calculate continuous normalised cell index using exCELLigence technology Normalised mean (n=4) cell index after 24 hours of indicated treatments.
The E-Plate 96 (Roche) was used for these experiments^45. This comprises a 96-well plate with integral sensor electrode arrays to measure cell impedance. […] E-plate 96 is a 96-well microtiter plate with incorporated gold cell sensor arrays in the bottom, which allows impedance inside each well to be monitored and assayed in real time. […] The impedance measured between electrodes in an individual well depends on electrode geometry, ion concentration in the well and whether or not cells are attached to the electrodes^45. In the absence of cells, electrode impedance is mainly determined by the ion environment both at the electrode/solution interface and in the bulk solution. […] Small changes in impedance can also be recorded when cells temporally change shape or size in response to agonists^46,57. […]

[2] = test system: Phospho-Ser16 HSP20 in neonatal cardiac myocytes; assay: Ser16 phosphorylation of endogenous HSP20 in neonatal cardiac myocytes (Western blot); type: cell-based, rat; details: neonatal cardiomyocytes, isoprenaline challenge
Protocol: FIG. 2. The phosphorylation of HSP20 at Ser16 is modulated by PDE4 activity in cardiac myocytes. A, Neonatal cardiac myocytes were treated with isoprenaline for indicated times with or without pre-treatment with the PDE4-specific inhibitor, rolipram. Cellular lysates were blotted for HSP20 and Phospho-Ser16 HSP20. B, Quantifications of data from FIG. 2A (n=3). * Denotes significance at a level p<0.05 over iso treatment.
(§2) HEK293B2 cells are a stable cell line overexpressing the GFP-tagged β2AR were cultured as previously described^48. HEK293B2 cells were transiently transfected with wild type HSP20 or a phosphorylation defective HSP20 (S16A) or a phosphorylation mimic HSP20 (S16D). Neonatal cardiac myocytes were prepared and cultured as previously described^30. Cell lysis, immunopurification and western blotting was done as described before by us in some detail^48. Briefly, HEK 293 cells were transiently transfected with wild-type HSP20 by using Polyfect Transfection Reagent (Qiagen). Transfected HEK 293 cells were treated with 10 μM bs906 or 10 μM control peptide for 0, 15, 30, 60 and 120 min. Control and treated transfected HEK 293 cells were then washed thrice with ice cold PBS (phosphate buffered saline) before cellular lysates were prepared. Cellular lysates were prepared in lysis buffer containing 25 mM Hepes, pH 7.5, 2.5 mM EDTA, 50 mM NaCl, 50 mM NaF, […], 10% (v/v) glycerol, 1% (v/v) Triton X-100 and Complete™ EDTA-free protease inhibitor cocktail tablets (Roche). Protein concentration of lysates were determined using the Bradford assay and all samples were equalised for protein concentration. Proteins were separated by SOS/PAGE (4-12% Bis-Tris gels) and transferred onto nitrocellulose membranes for Western blotting. Antibodies were used to detect phospho-proteins and native proteins in lysates from control and treated cells
To determine whether inhibition of PDE4 activity had similar effects on endogenous phospho-HSP20 levels in heart cells, similar experiments were undertaken using neonatal cardiomyocytes (FIG. 2).

[3] = test system: Phospho-Ser16 HSP20 in HEKB2 cells; assay: Ser16 phosphorylation of HSP20 in HEKB2 cells overexpressing HSP20 (Western blot); type: cell-based; details: HEKB2 cells transfected with wt HSP20, isoprenaline 1 μM, indicated times
Protocol: FIG. 1. The phosphorylation of HSP20 at Ser16 is modulated by PDE4 activity in HEKB2 cells. A, HEKB2 cells overexpressing HSP20 or HSP20 ser16-Ala mutant were treated with isoprenaline for indicated times. Cellular lysates were blotted for HSP20 and Phospho-Ser16 HSP20. B, HEKB2 cells overexpressing HSP20 were treated with isoprenaline for indicated times, Cellular lysates were blotted for HSP20 and Phospho-Ser16 HSP20. C, HEKB2 cells overexpressing HSP20 were treated with isoprenaline for indicated times following pre-treatment with the PDE4-specific inhibitor, rolipram. Cellular lysates were blotted for HSP20 and Phospho-Ser16 HSP20. D, Quantifications of data from FIGS. 1B and 1C (n=4). * Denotes significance at a level p<0.05 E, Lysate from untransfected HEKB2 cells was blotted for HSP20 and Phospho-Ser16 HSP20.
as §2
In contrast to this, when we transfected these cells with a phospho-null mutant form, Ser16Ala-Hsp20, then no such change was observed (FIG. 1A). In order to evaluate whether PDE4 activity played a role in regulating this phosphorylation process in Hsp20-transfected HEKB2 cells, cells that had either been pre-treated or not with the PDE4 selective inhibitor rolipram were subsequently challenged with isoprenaline (1 μM) (FIGS. 1B and C). […] Endogenous levels of phospho-HSP20 or HSP20 were not detectable in HEKB2 cells (FIG. 1E).

PDE4 = PDE4 activity associated with HSP20 immunoprecipitates from cardiac myocytes; type: cell-based, rat; details: isoprenaline 1 μM
Protocol: FIG. 3. HSP20 forms a complex with members of the PDE4 family of phosphodiesterases. A (upper panel), Immunopurification (Ips) of HSP20 from cellular lysates isolated from myocytes following treatment with Isoprenaline (1 μM) were blotted for the presence of PDE4D isoforms. B, (lower panel) The PDE4 activity associated with HSP20 Ips was determined. C, Members of the PDE4D sub-family of PDE4s were co-expressed with HSP20 in HEKB2 cells. HSP20 Ips were probed for PDE4D isoforms.
PDE activity was measured using a radioactive cAMP hydrolysis assay that has been described previously^56. [8-^3H]adenosine cyclic-3,5′-mono-phosphate was sourced from Amersham Biosciences (Little Chalfont, U.K.) and cyclic-3′,5′-mono-phosphate from Sigma.
Immunopurification (Ips) of HSP20 from cardiac myocytes were screened for associating PDE4 by Western blotting analysis and cAMP PDE assay (FIG. 3A).

[4] = test system: neonatal cardiac myocytes; assay: Cardiac myocyte cell size, manual cross-sectional area; type: cell-based, rat; details: 24 hour isoprenaline 10 μM, 30 min pre-treatment with 10 μM peptide
Protocol: as §1
Cardiomyocytes were plated out on gelatin (Sigma) pre-coated 6-well plates and placed in an incubator at 37° C. and an atmosphere of 5% CO2. After 24 h the cardiomyocytes were cultured in a serum-free condition for 48 h before experiments. The cardiomyocytes were then challenged for 24 h with either 10 μM isoprenaline alone or isoprenaline following a 30 min pre-treatment with 10 μM rolipram, 10 μM bs906 or 10 μM control peptide. Thereafter, cell size was determined on phase-contrast microscope. […] from randomly selected microscope images (400×) were captured digitally and analysed. Cross-sectional area was determined by the following formula: cross-sectional area=(radius)^2×π. Values are expressed as means±SE of five separate culture preparations. A f-test was performed to compare the two groups, and the P values are indicated.

[5] = molecular target: B3; assay: GST pull-down with purified recombinant proteins, immunoblot (data not shown)
Protocol: (§3) GST-PDE4 fusions proteins (500 μl of 2 μM) were mixed with 100 μl slurry of 50% (v/v) PBS-washed Glutathione beads for 2 h at 4° C. The beads were pelleted by centrifugation (14,000 g, 1 min) and washed twice with PBS containing 1% Triton X-100 before the addition of equal molar amounts of […] fusion protein in a 1 mL solution of PBS and Triton X-100 containing 5 mM dithiothreitol. After a 2 h incubation at 4° C. the beads were collected and washed three times with PBS and eluted in 100 μl of 2× Laemmli buffer. Eluates were resolved by SDS-PAGE, and the HSP20-His fusion proteins were detected by immunoblotting.
(§4) To evaluate further Hsp20 association with PDE4, we set out to determine whether they interacted directly. In order to do this we expressed Hsp20 and various PDE4 species in E. coli and purified them for use in pull-down assays. […] Additionally, we performed the converse experiment and first did pull-downs of HSP20, using its His tag, and then tested for co-purification of PDE4 species.

[6] = molecular target: T1, HSP20, wild type, transfected into …; assay: co-immunopurification with HSP20 from co-transfected HEKB2 cells, Western blot
Protocol: HEK293B2 cells are a stable cell line overexpressing the GFP-tagged β₂AR were cultured as previously described⁴⁸. HEK293B2 cells were transiently transfected with wild type HSP20 or a phosphorylation defective HSP20 (S16A) or a phosphorylation mimic HSP20 (S16D). […] Cell lysis, immunopurification and western blotting was done as described before by us in some detail⁴⁸. Briefly, HEK 293 cells were transiently transfected with wild-type HSP20 by using Polyfect Transfection Reagent (Qiagen). […] Control and treated transfected HEK 293 cells were then washed thrice with ice cold PBS (phosphate buffered saline) before cellular lysates were prepared. Cellular lysates were prepared in lysis buffer containing 25 mM Hepes, pH 7.5, 2.5 mM EDTA, 50 mM NaCl, 50 mM NaF, μM sodium pyrophosphate, 10% (v/v) glycerol, 1% (v/v) Triton X-100 and Complete™ EDTA-free protease inhibitor cocktail tablets (Roche). Protein concentration of lysates were determined using the Bradford assay and all samples were equalised for protein concentration. […] Antibodies were used to detect phospho-proteins and native proteins in lysates from control and treated cells
As before, we immunopurified HSP20 and blotted for the presence of transfected isoforms (FIG. 38).

GST alone = molecular target: T2, GST alone (UniProt P08515 1-218 = GST); assay: GST pull-down with purified recombinant proteins, immunoblot
T2 construct: Control of the pull-down
T2 sequence (P08515 whole entry): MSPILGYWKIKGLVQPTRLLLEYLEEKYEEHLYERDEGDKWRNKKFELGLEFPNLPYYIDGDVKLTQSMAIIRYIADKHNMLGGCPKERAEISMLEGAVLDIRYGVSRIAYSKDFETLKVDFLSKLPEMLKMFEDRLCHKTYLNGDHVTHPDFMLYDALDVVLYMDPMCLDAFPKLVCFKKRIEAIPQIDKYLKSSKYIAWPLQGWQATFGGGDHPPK
Protocol: as §3, §4

Molecule: CC(C)NCC(O)c1ccc(O)c(O)c1 (centres unmarked) [isoprenaline]
- cell size (normalised cell index, impedance) of cardiac myocytes [1]: marked increase in cell size
- endogenous phospho-HSP20 levels [2]: induced an increase in endogenous phospho-HSP20 levels
- phosphorylation of Hsp20 at Ser16 [3]: time dependent phosphorylation of Hsp20 at Ser16
- increase in PDE4 activity associated with HSP20 immunoprecipitates vs untreated lysates (PDE4): 2.5 fold
- cell size (cross-sectional area) of cardiac myocytes [4]: marked increase in cell size

Molecule: B1
- binding result [5]: binds

Molecule: B2
- binding result [6]: binds

Molecule: B3
- binding result (GST alone): no binding
